Reference: patent publication US6562810B1, “8-substituted-9H-1,3-dioxolo/4,5-h//2,3/benzodiazepine derivatives, as AMPA/kainate receptor inhibitors” (Egis Gyogyszergyar RT., priority 1997, dated 2003)
“Also recorded” adds a separate entry of the source. Like-named read-outs stand apart in the source and are kept apart here.

Tests used:
AMPA/kainate receptors [1] = test: QNTI (inhibition of quisqualate neurotoxicity) test; assay type: cell-based, rat; details: Inhibition of quisqualate neurotoxicity in primer cortical culture
Protocol: QNTI (inhibition of quisqualate neurotoxicity (test)
The method is based on the phenomenon that the neurotixic effect of quisqualate /i.e. (S)-alpha-amino-3,5-dioxo-1,2,4-oxadiazolidine-2-propanoic acid, an AMPA/kainate agonist/ on the primer telencephalic cell culture of the rat could be inhibited by AMPA/kainate antagonists. The test was performed as described in the literature /Kovács, A. D., Egyed, A.: Protection against non-NMDA receptor-mediated excitotoxicity by GYKI 52466 in mature telencephalic cultures of the rat, Neurobiology, 4, 59-72 (1996)/.

AMPA/kainate receptors [2] = test: PSI (inhibition of population spike) test in CA1 neurones of hippocampus; assay type: cell-based; details: non-cumulative IC50, rat hippocampus
Protocol: PSI (inhibition of population spike) test
The field potentials (population spike) evoked by electric stimulation of the Shaffer collateral comissural pathway were measured in the CAl neurones of rat hippocampus. The population spike can be inhibited by AMPA/kainate antagonists. The non-cumulative IC50 values are shown in Table I. /Tarnawa, I., Molnár, P., Gaál, L., Andrási, F.: Inhibition of hippocampal field potentials by GYKI 52466 in vitro and in vivo, Acta Physiol. Hung., 79(2), 163-9 (1992)/.

Acute toxicity = details: both sexes, mouse, in vivo
Protocol: The study was done in NMRI mice of both sexes, weighing 20 to 25 g, with 6 animals in each dose-group. The test compounds were applied at […], and the maximal per os and ip. doses were 500 mg/kg and 300 mg/kg, respectively. The cumulative lethality was recorded on day 7. The animals were kept under standard laboratory conditions.

male NMRI mice [3] = test: Muscle relaxant effect (inclined screen according to Hoppe); assay type: in vivo; details: ip.; for ED50: Mus musculus, determined at the time of maximal effect; for Muscle relaxant effect duration: time of last reading when the effect was at least 30%
Protocol: The assay was done according to Hoppe in male NMRI mice weighing 20 to 25 g, with 10 animals in each group /Hoppe, J. O., J. Pharmacol. Exp. Ther., 100, 333 (1950)/. Following the ip. treatment of animals, the number of mice showing muscle weakness were recorded at every 10 minutes in the first hour and at half hour intervals afterwards. The animals falling off the 60° inclined screen within 30 seconds were considered positive. ED50 values of the given compounds were determined at each time. The duration of effect was defined as the time of last reading when the effect was at least 30%.

male NMRI mice [4] = test: Maximal electroshock test (MES); assay type: in vivo; details: Inhibition of maximal electroshock, ip., 30 minutes before shock; for ED50: Mus musculus
Protocol: Maximal electroshock test (MES)
Male NMRI mice weighing 20 to 30 g were used for the method of Swinyard et al. /Swinyard, E. A., Brown, W. C. and Goodman, L.S.: Comparative assays of antiepileptic drugs in mice and rats, J. Pharmacol., 106, 319 (1952)//. The animals—10 in each group—were treated ip. either with various doses of the test substance or with vehicle. After 30 minutes, a 50 Hz, 40 mA electroshock was applied for 0.4 s through corneal electrodes. The number of animals that developed tonic extensor convulsion of the hind-limbs was registered, percent inhibition was calculated, and ED50 values were determined by the method of Litchfield and Wilcoxon /Litchfield, J. T., Wilcoxon, F. A.: A simplified method of evaluating dose-effect experiments, J. Pharmacol. Exp. Ther., 96, 99 (1949)/ and summarized in Table IV.

male DBA/2j strain mice = test: Audiogenic seizure (AS) test; assay type: in vivo; details: for ED50: Mus musculus, 0.25 h
Protocol: Audiogenic seizure (AS) test
The experiments were carried out by the slightly modified method of De Sarro et al. /De Sarro, G. B., Croucher, M. J. and Meldrum, B. S.: Anticonvulsant action of DS 103-282, Neuropharm., 23, 525 (1984)/. Groups of 8 male DBA/2j strain mice weighing 7 to 14 g were treated ip. with the test substance in 10 ml/kg volume. 15 minutes later, the animals were placed into a covered glass container (30 cm in diameter) and exposed to a 14 kHz 120 dB tone for 60 s at the most. Seizure response was assessed using the following scale: 0=normal behaviour, 1=wild running, 2=clonus, 3=tonic flexor seizure, 4=tonic extensor seizure. The maximum response during the 60 s exposure was recorded for each animal. Lethality was also noted. The ED50 values were determined by the method of Litchfield and Wilcoxon concerning the inhibition of clonic seizures and tonic extensor convulsions.

male NMRI mice [5] = test: Global ischemia induced by magnesium chloride (gasping time); assay type: in vivo; details: for Effect in % (increase in gasping time): dose 30 mg/kg ip., 30 minutes before magnesium chloride iv.; for ID50 ip.: gasping time, calculated by linear regression
Protocol: Global Ischemia Induced by Magnesium Chloride
The experiments were carried out as described by Berga et al. /Berga, P., Beckett, P. R., Roberts, D. J., Llenas, J., Massingham, R.: Synergistic interactions between piracetam and dihydroergocristine in some animal models of cerebral hypoxia and ischemia, Arzneim.-Forsch., 36, 1314-1320 (1986)/. Groups of 10 male NMRI mice weighing 20 to 25 g were treated ip. with the test substance in […]. After 30 minutes, saturated aqueous magnesium chloride solution was applied iv. (5 ml/kg) resulting in an immediate cardiac arrest. The elapsed time between the iv. injection and the last gasping was measured (gasping time). The means of the treated groups were expressed as percent of control. Statistical analysis was done by ANOVA followed by DUNCAN test. The dose resulting in 50% descrease in gasping time (ID50) was calculated by linear regression.

Row | Structure (SMILES) | IC50 (AMPA/kainate receptors [1]) [µM] | IC50 (AMPA/kainate receptors [2]) [µM] | ED50 (male NMRI mice [3]) [mg/kg] | Muscle relaxant effect duration (male NMRI mice [3]) | Effect in % (increase in gasping time) (male NMRI mice [5]) [%] | ID50 ip. (male NMRI mice [5]) [mg/kg] | further results
1 | CC1(C#N)Cc2cc3c(cc2C(c2ccc([N+](=O)[O-])cc2)=NN1C(=O)CCl)OCO3 (racemic) [Example 73, (±)-8-Cyano-7,8-dihydro-7-chloroacetyl-8-methyl-5-(4-nitrophenyl)-9H-1,3-dioxolo/4,5-h//2,3/benzodiazepine] | 7.4 | 6.3 | 22.6 | substantially longer; also recorded: higher than 4 hr | – | – | LD50 at 7 day (Acute toxicity; NMRI, ip, 300 mg/kg): ~300 mg/kg; LD50 at 7 day (Acute toxicity; NMRI, po, 500 mg/kg): > 500 mg/kg
2 | CC1(C#N)Cc2cc3c(cc2C(c2ccc(N)cc2)=NN1C(=O)CCNCCN1CCOCC1)OCO3 (racemic) [Example 89, (±)-5-(4-Aminophenyl)-8-cyano-7,8-dihydro-8-methyl-7-/3-(2-morpholinoethylamino)-propionyl/-9H-1,3-dioxolo/4,5-h//2,3/-benzodiazepine] | 5.4 | 3 | 31.3 | 1 h | 117 | 7 | LD50 at 7 day (Acute toxicity; NMRI, ip, 300 mg/kg): ~300 mg/kg; LD50 at 7 day (Acute toxicity; NMRI, po, 500 mg/kg): > 500 mg/kg; MES ED50 (male NMRI mice [4]): The compound according to Example 89 was significantly more effective at the inhibition of maximal electroshock and sound induced tonic convulsions than the reference compound “A” as shown in Table TV.; ED50 (male NMRI mice [4]): 2.3 mg/kg; AS convulsion tonic ED50 (male DBA/2j strain mice; Inhibition of sound induced seizure, tonic extensor convulsions, DBA/2j mice, ip., 15 minutes): The compound according to Example 89 was significantly more effective at the inhibition of maximal electroshock and sound induced tonic convulsions than the reference compound “A” as shown in Table TV.; ED50 (male DBA/2j strain mice; Inhibition of sound induced seizure, clonic seizures, DBA/2j mice, ip., 15 minutes, read-out: AS convulsion clonic ED50): 5.4 mg/kg; ED50 (male DBA/2j strain mice; Inhibition of sound induced seizure, tonic extensor convulsions, DBA/2j mice, ip., 15 minutes, read-out: AS convulsion tonic ED50): 1.2 mg/kg
3 | NC(=O)C1=NN=C(c2ccc(N)cc2)c2cc3c(cc2C1)OCO3 [Example 32, 5-(4-Aminophenyl)-9H-1,3-dioxolo/4,5-h//2,3/benzodiazepine-8-carboxylic amide] | – | – | – | – | – | – | MES ED50 (male NMRI mice [4]): 2.5 mg/kg
4 | CC1=NN=C(c2ccc(N)cc2)c2cc3c(cc2C1)OCO3 [“A”, 8-Methyl-5-(4-aminophenyl)-9H-1,3-dioxolo/4,5-h/-/2,3/benzodiazepine, reference compound] | 12 | 9.1 | 24.5 | 1 h | 55 | 30 | LD50 at 7 day (Acute toxicity; po, NMRI mice, p.o., cumulative lethality on day 7, maximal dose 500 mg/kg, read-out: Appr. LD50 p.o.): 500 mg/kg; LD50 at 7 day (Acute toxicity; NMRI mice, ip., cumulative lethality on day 7, maximal dose 300 mg/kg, read-out: Appr- LD50 ip.): 392 mg/kg; ED50 (male NMRI mice [4]): 6.9 mg/kg; ED50 (male DBA/2j strain mice; ip, read-out: AS convulsion clonic ED50): 4.3 mg/kg; ED50 (male DBA/2j strain mice; ip, read-out: AS convulsion tonic ED50): 3.6 mg/kg
5 | Nc1ccc(C2=NN=C(c3nnn[nH]3)Cc3cc4c(cc32)OCO4)cc1 [Example 48, 5-(4-Aminophenyl)-8-(5-tetrazolyl)-9H-1,3-dioxolo/4,5-h//2,3/benzodiazepine] | – | – | – | – | – | – | melting point: 244 to 246 °C
6 | N#CC1=NN=C(c2ccc(N)cc2)c2cc3c(cc2C1)OCO3 [Example 47, 5-(4-Aminophenyl)-8-cyano-9H-1,3-dioxolo/4,5-h//2,3/benzodiazepine] | – | – | – | – | 89 | 15 | –
7 | CC1(C#N)Cc2cc3c(cc2C(c2ccc([N+](=O)[O-])cc2)=NN1)OCO3 (racemic) [Example 58, (±)-8-Cyano-7,8-dihydro-8-methyl-5-(4-nitrophenyl)-9H-1,3-dioxolo/4,5-h//2,3/benzodiazepine] | – | – | – | – | – | – | melting point: 162 to 164 °C
